The values that follow come from patent publication US6162832A, “2-Phenoxyaniline derivatives” (Taisho Pharmaceutical Co., Inc., priority 1997, dated 2000).

Where a name gives a salt, the structure may show the parent alone.

This test has as its target T1, Na^+ /Ca^2+ Exchange System (Canis lupus familiaris, UniProt P23685).
T1 construct: Sarcolemmal vesicles prepared from the removed dog ventricular muscles; from tissue; host or cells: dog ventricular muscle, sarcolemmal vesicles
Description: Inhibitory Action on a Na^+ /Ca^2+ Exchange System using Cardiac Sarcolemmal Vesicles. In kind it is biochemical. The settings on record: 10 s; 1 μM test drug; dog ventricular sarcolemmal vesicles; 45Ca uptake, 10 seconds; remaining activity vs vehicle-treated group; read-out: Na^+ /Ca^2+ exchange activity (% of control). Here is the method:
Inhibitory Action on a Na^+ /Ca^2+ Exchange System using Cardiac Sarcolemmal Vesicles Sarcolemmal vesicles prepared from the removed dog ventricular muscles according to the method described in the literature (L. R. Jones, Methods, Enzymol., 1988, 157, pp. 85) were used. A Na^+ /Ca^2+ exchange activity using the sarcolemmal vesicles was measured according to the method described in the literature (K. D. Philipson, et al., J. Biol. Chem., 1980, 255, pp. 6880). First, the sarcolemmal vesicles were suspended in a sodium-containing solution [160 mM sodium chloride, 20 mM Tris-hydrochloric acid (pH 7.4)] to make up to a protein concentration of 1.5 mg/ml, and allowed to stand for an hour to load Na^+ in the sarcolemmal vesicles. To 2.5 μl of the sarcolemmal vesicles was added 125 μl of a [^45 Ca]-calcium chloride solution [20 μM [^45 Ca]-calcium chloride, 160 mM potassium chloride and 20 mM Mops-Tris (pH 7.4)], and after 10 seconds, 900 μl of an ice-cooled lanthanum chloride solution [10 mM lanthanum chloride, 160 mM potassium chloride and 20 mM Mops-Tris (pH 7.4)] was added. The sarcolemmal vesicles were recovered on a nitrocellulose filter by suction filtration and washed three times with 900 μl of a lanthanum chloride solution. The […] of Ca^2+ uptake in the sarcolemmal vesicles was determined by measuring a ^45 Ca radioactivity by a scintillator. In addition, a Na^+ /Ca^2+ exchange activity-independent Ca^2+ uptake in the sarcolemmal vesicles was determined by carrying out the same procedure using a potassium-containing solution [160 mM potassium chloride, 20 mM Tris-hydrochloric acid (pH 7.4)] instead of the sodium-containing solution. The test compound was used as a dimethyl sulfoxide solution thereof, and its inhibitory effect was evaluated in comparison with the vehicle-treatedgroup.

For the molecule `Nc1ccccc1Oc1ccc(OCc2ccc(F)cc2F)cc1` [Compound 8, 2-[4-(2,4-Difluorobenzyloxy)phenoxy]aniline hydrochloride], the remaining activity at 1 µM was found to be 47%.

For `Nc1ccccc1Oc1ccc(OCc2cccc(F)c2F)cc1` [Compound 3, 2-[4-(2,3-Difluorobenzyloxy)phenoxy]aniline hydrochloride], the remaining activity at 1 µM was 38%.

Take `CCOc1ccc(Oc2ccc(OCc3cc(F)ccc3F)cc2)c(N)c1` [Compound 6, 2-[4-(2.5-Difluorobenzyloxy)phenoxy]-5-ethoxyaniline hydrochloride]: the remaining activity at 1 µM was determined as 39%.

On to `CCOc1ccc(Oc2ccc(OCc3cccc(F)c3F)cc2)c(N)c1` [Compound 10, 2-[4-(2,3-Difluorobenzyloxy)phenoxy]-5-ethoxyaniline hydrochloride], for which the remaining activity at 1 µM worked out at 45%.

As for `Nc1ccccc1Oc1ccc(OCc2cc(F)ccc2F)cc1` [Compound 4, 2-[4-(2,5-Difluorobenzyloxy)phenoxy]aniline hydrochloride], the remaining activity at 1 µM turned out to be 27%.

Take `CCOc1ccc(Oc2ccc(OCc3c(F)cccc3F)cc2)c(N)c1` [Compound 7, 2-[4-(2.6-Difluorobenzyloxy)phenoxy]-5-ethoxyaniline hydrochloride]: the remaining activity at 1 µM stood at 33%.

`Nc1ccccc1Oc1ccc(OCc2c(F)cccc2F)cc1` [Compound 5, 2-[4-(2,6-Difluorobenzyloxy)phenoxy]aniline hydrochloride]: the remaining activity at 1 µM is 43%.
